Measured values published in patent US5393761A, “3-arylindole compounds” (H. Lundbeck A/S, priority 1990, dated 1995).
Structures can show the parent of a compound that is named as a salt.

What was measured:
[1] = target: T1, serotonin S2 (5-HT2) receptors in rat cortex (Rattus norvegicus, UniProt P14842); assay: Inhibition of ^3H-ketanserin binding to serotonin S2 (5-HT2) receptors in rat cortex in vitro; conditions: 0.5 nM ^3H-ketanserin, rat cortex membranes, 37° C., 30 min
T1 construct: Serotonin S2 (5-HT2) receptors in membranes from rat; from tissue; host or cells: cerebral cortex membranes of male Wistar rats (printed 'conical tissue', a misprint for cortical)
T1 sequence (P14842 whole entry): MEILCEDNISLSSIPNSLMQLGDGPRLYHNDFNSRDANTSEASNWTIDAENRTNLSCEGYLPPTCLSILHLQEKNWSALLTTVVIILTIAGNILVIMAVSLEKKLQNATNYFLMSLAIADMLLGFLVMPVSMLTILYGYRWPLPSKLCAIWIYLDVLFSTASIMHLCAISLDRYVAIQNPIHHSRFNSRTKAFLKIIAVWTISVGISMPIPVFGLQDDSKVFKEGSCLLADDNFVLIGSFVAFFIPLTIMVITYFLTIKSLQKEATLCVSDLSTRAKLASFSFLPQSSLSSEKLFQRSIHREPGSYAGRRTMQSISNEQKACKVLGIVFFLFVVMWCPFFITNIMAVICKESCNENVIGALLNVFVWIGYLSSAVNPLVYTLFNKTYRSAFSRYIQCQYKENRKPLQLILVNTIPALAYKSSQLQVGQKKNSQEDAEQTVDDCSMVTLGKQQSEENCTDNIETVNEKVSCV
Description: Method in Hyttel, Pharmacology & Toxicology, 61, 126-129, 1987.
Male Wistar (Mol:Wist) rats (125-250 g) are sacrificed and conical tissue is dissected and weighed. The tissue is homogenized (Ultra Turrax, 10 sec.) in 10 ml of ice-cold 50 mM tris buffer pH 7.7 (at 25° C.). The centrifuge glassware used in this step has been rinsed by sonication for 10 min. in ethanol. The homogenate is centrifuged twice at 20,000 g for 10 min. at 4° C. with rehomogenization of the pellet in 10 ml ice-cold buffer. The final pellet is homogenized in 500 vol (w/v)ice-cold buffer.
Incubation tubes kept on ice in triplicate receive 100 μl Of drug solution in water (or water for total binding) and 2000 μl of tissue suspension (final tissue content corresponds to 4 mg original tissue). […] After incubation for 30 min. the samples are filtered under vacuum (0-50 mBar) through Whatman GF/F filters (25 mm). The tubes are rinsed with 5 ml ice-cold buffer which are then poured on the filters. Thereafter, the filters are washed with 2×5 ml of buffer. The filters are placed in counting vials and 4 ml of appropriate scintillation fluid (e.g. Picofluor ™15) are added. After shaking for 1 h and storage 2 hrs in the dark the content of radioactivity is determined by liquid scintillation counting. Specific binding is obtained by subtracting the nonspecific binding in the presence of 1 μM mianserin. For determination of the inhibition of binding five concentrations of drugs covering 3 decades are used.
The IC50 value is determined as the concentration at which the binding is 50% of the total binding in control samples minus the nonspecific binding in the presence of 1 μM mianserin.

[2] = target: dopamine D-2 receptors in rat corpus striatum (Rattus norvegicus, UniProt P61169); assay: Inhibition of ^3H-spiperone (spiroperidol) binding to dopamine D-2 receptors in rat corpus striatum in vitro; conditions: 0.5 nM ^3H-spiperone, rat striatum membranes, 37° C., 10 min
Chain of dopamine D-2 receptors in rat corpus striatum (P61169 whole entry): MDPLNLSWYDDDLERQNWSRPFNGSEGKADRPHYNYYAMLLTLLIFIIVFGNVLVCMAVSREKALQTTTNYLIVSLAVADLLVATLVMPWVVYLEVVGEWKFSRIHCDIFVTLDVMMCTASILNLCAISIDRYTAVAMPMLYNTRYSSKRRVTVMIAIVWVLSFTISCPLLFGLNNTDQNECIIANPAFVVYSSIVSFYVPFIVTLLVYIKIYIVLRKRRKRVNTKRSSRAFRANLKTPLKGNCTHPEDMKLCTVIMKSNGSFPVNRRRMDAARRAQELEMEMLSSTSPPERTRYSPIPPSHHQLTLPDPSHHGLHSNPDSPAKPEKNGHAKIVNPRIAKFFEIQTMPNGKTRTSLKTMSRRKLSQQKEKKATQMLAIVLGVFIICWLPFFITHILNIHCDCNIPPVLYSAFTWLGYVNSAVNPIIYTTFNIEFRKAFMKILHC
Description: By this method the inhibition by drugs of the binding of ^3 H-spiperone (=^3 H-spiroperidol) (0.5 nM) to dopamine D-2 receptors in membranes from rat corpus striatum is determined in vitro. Method and results in Hyttel & Larsen, J. Neurochem, 44, 1615-1622, 1985).
Male Wistar (Mol:Wistar) rats (125-250 g) are sacrificed and striatal tissue is dissected and weighed. The tissue is homogenized (Ultra Turrax, 10 sec.) in 10 ml of ice-cold 50 mM K-phosphate buffer pH 7.4 (at 25° C.). The homogenate is centrifuged twice at 20,000 g for 10 min. at 4° C. with rehomogenization of the pellet in 10 ml ice-cold buffer. The final pellet is homogenized in 1300 vol (w/v) ice-cold buffer.
Incubation tubes kept on ice in triplicate receive 100 μl of drug solution in water (or water for total binding) and 4000 μl Of tissue suspension (final tissue content corresponds to 3.08 mg original tissue). The binding experimental is initiated by addition of 100 μl of ^3 H-spiperone (final concentration 0.5 nM) and by placing the tubes in a 37° C. water bath. After incubation for 10 min. the samples are filtered under vacuum (0-50 mBar) through Whatman GF/F filters (25 mm). The tubes are rinsed with 5 ml ice-cold buffer which are then poured on the filters. Thereafter, the filters are washed with 2×5 ml of buffer. The filters are placed in counting vials and 4 ml of appropriate scintillation fluid (e.g. Picofluor ™15) are added. After shaking for 1 h and storage 2 hrs in the dark the content of radioactivity is determined by liquid scintillation counting. Specific binding is obtained by subtracting the nonspecific binding in the presence of 10 μM of 6,7-ADTN.
For determination of the inhibition of binding five concentrations of drugs covering 3 decades are used.
The measured cpm are plotted against drug concentration on semilogarithmic paper and the best fitting S-shaped curve is drawn. […] England, specific activity 15-25 Ci/mmol.

SMILES | IC50 [1] [nM] | IC50 [2] [nM]
Cc1c(-c2ccccc2)c2ccccc2n1C1CCN(CCN2CCNC2=O)CC1 [Compound 7c, 1-[1-[2-(Imidazolidin-2-on-1-yl)ethyl]-4-piperidyl]-2-methyl-3-phenyl-1H-indole] | 7.8 | 5300
O=C1NCCN1CCN1CCC(n2cc(-c3ccc(F)cc3)c3cc(C(F)(F)F)ccc32)CC1 [Compound 7b, 3-(4-Fluorophenyl)-1-[1-[2-(imidazolidin-2-on-1-yl)ethyl]-4-piperidyl]-5-trifluoromethyl-1H-indole] | 6.2 | > 1000
Cc1ccc2c(c1)c(-c1ccc(F)cc1)cn2C1CCN(C(C)C)CC1 [Compound 4s, 3-(4-Fluorophenyl)-5-methyl-1-[1-(2-propyl)-4-piperidyl]-lH-indole, maleate] | 12 | 330
CN1CCN(CCN2CCC(n3cc(-c4ccc(F)cc4)c4cc(Cl)ccc43)CC2)C1=O [Compound 4f, 5-Chloro-3-(4-fluorophenyl)-1-[1-[2-(3-methylimidazolidin-2-on-1-yl)ethyl]-piperidyl]-1H-indole] | 1.4 | 550
Cc1ccc2c(c1)c(-c1ccc(F)cc1)cn2C1=CCN(CCN2CCNC2=O)CC1 [Compound 6c, 3-(4-Fluorophenyl)-1-[1-[2-(imidazolidin-2-on-1-yl)ethyl]-1,2,3,6-tetrahydropyridin-4-yl]-5-methyl-1H-indole] | 1.4 | 320
Cc1ccc2c(c1)c(-c1ccc(F)cc1)cn2C1CCN(CCNC(=S)N(C)C)CC1 [Compound 13a, 1-[1-[2-(3,3-Dimethyl-1-thioureido)ethyl]-4-piperidyl]-3-(4-fluorophenyl)-5-methyl-1H-indole] | 3.7 | 250
Cc1ccc2c(c1)c(-c1ccc(F)cc1)cn2C1CCN(CCN2CCCC2=O)CC1 [Compound 4j, 3-(4-Fluorophenyl)-5-methyl-1-[1-[2-(2-pyrrolidinon-1-yl)ethyl]-4-piperidyl]-1H-indole, oxalate] | 4.5 | 1200
O=C1NCCN1CCN1CCC(n2cc(-c3ccc(F)cc3)c3ccccc32)CC1 [Compound 4k, 3-(4-Fluorophenyl)-1-[1-[2-(imidazolidin-2-on-1-yl)ethyl]-4-piperidyl]-1H-indole] | 3.1 | 120
O=C1NCCN1CCN1CCC(n2cc(-c3ccc(F)cc3)c3ccc(Cl)cc32)CC1 [Compound 4b, 6-Chloro-3-(4-fluorophenyl)-1-[1-[2-(imidazolidin-2-on-1-yl)ethyl]-4-piperidyl]-1H-indole] | 1.9 | 37
Cc1ccc2c(c1)c(-c1ccc(F)cc1)c(C)n2C1=CCN(CCN2CCNC2=O)CC1 [Compound 6a, 2,5-Dimethyl-3-(4-fluorophenyl)-1-[1-[2-(imidazolidin-2-on-1-yl)ethyl]-1,2,3,6-tetrahydropyridin-4-yl]-1H-indole] | 2.8 | 6300
Cc1ccc2c(c1)C(c1ccc(F)cc1)CN2C1CCN(CCN2CCNC2=O)CC1 (centres unmarked) [Compound 18b, 2,3-Dihydro-3-(4-fluorophenyl)-1-[1-[2-(imidazolidin-2-on-1-yl)ethyl]-4-piperidyl]-5-methyl-1H-indole] | 4.3 | 1100
Cc1ccc2c(c1)c(-c1ccc(F)cc1)c(C)n2C1=CCN(C)CC1 [Compound 6b, 2,5-Dimethyl-3-(4-fluorophenyl)-1-(1-methyl-1,2,3,6-tetrahydropyridin-4-yl)-1H-indole] | 3.8 | 710
O=C1NCCN1CCN1CCC(n2cc(-c3ccccc3)c3cc(Cl)ccc32)CC1 [Compound 4p, 5-Chloro-3-phenyl-1-[1-[2-(imidazolidin-2-on-1-yl)ethyl]-4-piperidyl]-1H-indole] | 29 | 2800
Cc1ccc2c(c1)c(-c1ccc(F)cc1)c(C)n2C1CCN(C)CC1 [Compound 9a, 2,5-Dimethyl-3-(4-fluorophenyl)-1-(1-methyl-4-piperidyl)-1H-indole] | 5.3 | 2600
O=C1OCCN1CCN1CCC(n2cc(-c3ccc(F)cc3)c3cc(F)ccc32)CC1 [Compound 4o, 5-Fluoro-3-(4-fluorophenyl)-1-[1-[2-(oxazolidin-2-on-3-yl)ethyl]-4-piperidyl]-1H-indole] | 37 | 790
O=C1NCCN1CCN1CCC(n2c(Br)c(-c3ccc(F)cc3)c3ccccc32)CC1 [Compound 4x, 2-Bromo-3-(4-fluorophenyl)-1-[1-[2-(imidazolidin-2-on-1-yl)ethyl]-4-piperidyl]-1H-indole] | 11 | 650
Cc1c(-c2ccccc2)c2cc(Cl)ccc2n1C1=CCN(C)CC1 [Compound 6e, 5-Chloro-2-methyl-1-(1-methyl-1,2,3,6-tetrahydropyridin-4-yl)-3-phenyl-1H-indole, oxalate] | 9.4 | 1000
CC(C)N1CCN(CCN2CCC(n3cc(-c4ccc(F)cc4)c4cc(F)ccc43)CC2)C1=O [Compound 4n, 5-Fluoro-3-(4-fluorophenyl)-1-[1-[2-[3-(2-propyl)imidazolidin-2-on-1-yl]ethyl]-4-piperidyl]-1H-indole] | 3.1 | 190
Cc1ccc2c(c1)c(-c1ccc(F)cc1)cn2C1CCN(CCNC(=O)N(C)C)CC1 [Compound 13b, 1-[1-[2-(3,3-Dimethyl-1-ureido)ethyl]-4-piperidyl]-3-(4-fluorophenyl)-5-methyl-1H-indole] | 2.3 | 260
O=C1NCCN1CCN1CCC(n2nc(-c3ccc(F)cc3)c3cc(C(F)(F)F)ccc32)CC1 [Compound 4u, 3-(4-Fluorophenyl)-1-[1-[2-(imidazolidin-2-on-1-yl)ethyl]-4-piperidyl]-5-trifluoromethyl-1H-indazole] | 220 | 42000
Cc1ccc2c(c1)c(-c1ccc(F)cc1)c(C)n2C1CCN(CCN2CCNC2=O)CC1 [Compound 7a, 2,5-Dimethyl-3-(4-fluorophenyl)-1-[1-[2-(imidazolidin-2-on-1-yl)ethyl]-4-piperidyl]-1H-indole] | 3.4 | 6900
Cc1ccc2c(c1)c(-c1ccc(F)cc1)cn2C1CCN(CCN2CCNC2=O)CC1 [Compound 4g, 3-(4-Fluorophenyl)-1-[1-[2-(imidazolidin-2-on-1-yl)ethyl]-4-piperidyl]-5-methyl-1H-indole] | 1.6 | 920
O=C1NCCN1CCN1CC=C(n2cc(-c3ccc(F)cc3)c3cc(C(F)(F)F)ccc32)CC1 [Compound 6f, 3-(4-Fluorophenyl)-1-[1-[2-(imidazolidin-2-on-1-yl)ethyl]-1,2,3,6-tetrahydropyridin-4-yl]-5-trifluoromethyl-1H-indole] | 3.6 | 440
O=C1NCCN1CCN1CCC(n2cc(-c3ccc(F)cc3)c3cc(F)ccc32)CC1 [Compound 4m, 5-Fluoro-3-(4-fluorophenyl)-1-[1-[2-(imidazolidin-2-on-1-yl)ethyl]-4-piperidyl]-1H-indole] | 3.2 | 250
Cc1ccc2c(c1)c(-c1ccc(F)cc1)cn2C1CCN(CCN2CCN(C(C)C)C2=O)CC1 [Compound 4h, 3-(4-Fluorophenyl)-5-methyl-1-[1-[2-[3-(2-propyl)imidazolidin-2-on-1-yl]ethyl]-4-piperidyl)-1H-indole, oxalate] | 2.7 | 1100
